Data from US9403756B2, “N-phenyl anthranilic acid derivatives and uses thereof” (Ramot at Tel-Aviv University Ltd., priority 2007, dated 2016).
pEC50: −log10 of the molar value. “Also recorded” adds a separate entry of the source. Like-named read-outs stand apart in the source and are kept apart here.

Tests used:
KCNQ2 mutant R207W = molecular target: T1, KCNQ2 mutant R207W (Homo sapiens, UniProt O43526, R207W); assay type: cell-based
T1 construct: expressed in transfected cells; host or cells: CHO cells
T1 sequence (O43526 whole entry R207W): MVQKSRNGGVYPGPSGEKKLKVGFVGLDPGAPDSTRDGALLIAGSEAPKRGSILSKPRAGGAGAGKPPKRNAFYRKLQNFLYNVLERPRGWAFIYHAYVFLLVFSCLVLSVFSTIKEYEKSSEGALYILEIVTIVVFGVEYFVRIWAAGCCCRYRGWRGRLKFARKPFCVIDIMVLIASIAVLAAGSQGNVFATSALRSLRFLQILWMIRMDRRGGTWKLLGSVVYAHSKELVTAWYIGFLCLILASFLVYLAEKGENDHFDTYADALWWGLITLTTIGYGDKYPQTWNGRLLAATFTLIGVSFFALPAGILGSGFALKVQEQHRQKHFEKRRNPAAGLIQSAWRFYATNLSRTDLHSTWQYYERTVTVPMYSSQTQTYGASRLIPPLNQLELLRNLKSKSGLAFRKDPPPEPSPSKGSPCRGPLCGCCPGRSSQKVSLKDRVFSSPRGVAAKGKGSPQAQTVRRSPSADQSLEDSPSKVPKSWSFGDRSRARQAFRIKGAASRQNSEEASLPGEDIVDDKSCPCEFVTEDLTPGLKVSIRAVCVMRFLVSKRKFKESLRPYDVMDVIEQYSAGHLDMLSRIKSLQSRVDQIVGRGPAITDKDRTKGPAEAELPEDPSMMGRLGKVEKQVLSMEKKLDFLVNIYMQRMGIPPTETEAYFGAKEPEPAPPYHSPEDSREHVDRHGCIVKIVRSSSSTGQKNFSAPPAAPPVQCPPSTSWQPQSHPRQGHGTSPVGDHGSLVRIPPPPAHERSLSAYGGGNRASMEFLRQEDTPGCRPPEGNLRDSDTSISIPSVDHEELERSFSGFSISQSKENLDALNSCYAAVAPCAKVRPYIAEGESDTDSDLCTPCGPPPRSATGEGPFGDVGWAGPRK
Text: FIGS. 10A-D present the potentiating effect of NH29, an exemplary channel opener compound according to embodiments of the present invention, on wild type KCNQ2 (FIGS. 10A and 10B) and R207W mutant (FIGS. 10C and 10D) channels, as expressed in activation curve measurements, showing that NH29 left-shifts the activation curve (ΔV50) by −15.5 mV and −5.5 mV in the case of the wild-type and the mutant, respectively, and showing that NH29 enhances the current of wild-type and the mutant by about 3.4-fold (at −40 mV) and 1.5-fold (at −20 mV), respectively.
FIGS. 11A-F present the potentiating effect of NH29, an exemplary channel opener compound according to embodiments of the present invention, and Retigabine, on KCNQ2 mutants R207W and W236L mutant. Shown are representative traces recorded from CHO cell transfected with the KCNQ2 mutant R207W 0, 1 and 4-4.5 minutes after external application of 25 μM of NH29 and wherein the membrane potential was stepped from −90 mV holding potential to −20 mV for 1.5 seconds pulse duration (FIG. 11A), or 0, 1 and 4 minutes after external application of 25 μM of Retigabine wherein the membrane potential was stepped from −90 mV holding potential to −40 mV for 1.5 seconds pulse duration (FIG. 11B). FIGS. 11C and 11D show representative traces recorded from CHO cells transfected with the KCNQ2 mutant W236L 0, 1 and 6 minutes after external application of 25 μM of NH29 (FIG. 11C) or 0 and 5 minutes after external application of 10 μM of Retigabine (FIG. 11D) and wherein the membrane potential was stepped from −90 mV holding potential to −40 mV for 1.5 seconds pulse duration. FIG. 11E presents superimposed traces, showing the effects of Retigabine (RTG) and NH29 on the channel activity of KCNQ2 mutant W236L as measured at −40 mV; and FIG. 11F presents a bar diagram comparing the potentiating effect of NH29 and Retigabine on native KCNQ2 and KCNQ2 mutants, wherein the opener effect is expressed as percent of the control current in the absence of the opener.
(§1) Voltage-clamp recordings in CHO cells were performed, using the whole-cell configuration of the patch-clamp technique. Signals were amplified using an Axopatch 200B patch-clamp amplifier (Molecular Devices, Sunnyvale, Calif.), sampled at 2 kHz and filtered at 800 Hz via a 4-pole Bessel low pass filter. Data were acquired using pClamp 9.2 software (Molecular Devices) and an IBM compatible Pentium IV computer in conjunction with a DigiData 1322A interface (Molecular Devices). The patch pipettes were pulled from borosilicate glass (Warner Instrument Corp, USA) with a resistance of 2-5 MΩ. For K^+ current recordings in CHO cells, the intracellular pipette solution contained (in mM): 130 KCl, 1 MgCl2, 5 K2ATP, 5 EGTA, 10 HEPES, adjusted with KOH to pH 7.4 (290 mOsm). The extracellular solution contained (in mM): 140 NaCl, 4 KCl, 1.8 CaCl2, 1.2 MgCl2, 11 glucose, 5.5 HEPES, adjusted with NaOH to pH 7.4 (310 mOsm). Series resistances (3-13 MΩ) were compensated (75-90%) and periodically monitored.

Kv7.2/3 channels = molecular target: T2, Kv7.2/3 channels (Homo sapiens, UniProt O43525+O43526); assay: Kv7.2/3 channels coexpressed in CHO cells, whole-cell patch-clamp; assay type: cell-based; conditions: for Activity: M-channel modulation, Kv7.2 and Kv7.3 subunits coexpressed in CHO cells; for pEC50: read-out: EC50; for ΔV50 (mV): left-shift of the activation curve of Kv7.2/3 channels
T2 construct: expressed in transfected cells; host or cells: CHO cells
Procedure: Chinese hamster ovary (CHO) cells were grown in Dulbecco's modified Eagle's medium (DMEM) supplemented with 2 mM glutamine, 10% fetal calf serum and antibiotics. Briefly, 40,000 cells seeded on poly-D-lysine-coated glass coverslips (13 mm diameter) in a 24-multiwell plate were transfected with pIRES-CD8 (0.5 μg) as a marker for transfection, and with Kv7.2 (0.5 μg) and Kv7.3 (0.5 μg) or TRPV1 […] or TRPV6 […].
For electrophysiology, transfected cells were visualized approximately 40 hours following transfection, using anti-CD8 antibody-coated beads. Transfection was performed using Fugene 6 (Roche, Indianapolis Ind., USA) according to the manufacturer's protocol.
as §1, with “Data were acquired using pClamp 9.2 software (Molecular Devices) and an IBM compatible Pentium IV computer in conjunction with a DigiData 1322A interface (Molecular Devices).” left out, “mOsm).” for “mOsm). Series resistances (3-13 MΩ) were compensated (75-90%) and periodically monitored.”
Data analysis was performed using the Clampfit program (pClamp 9.2, Molecular Devices), Microsoft Excel (Microsoft) and Prism 4.0 (GraphPad). Chord conductance (G) was calculated by using the following equation: G=I/(V−Vrev) where I corresponds to the current amplitude measured at the end of the pulse and Vrev, the calculated reversal potential. G was estimated at various test voltages V and then, normalized to a maximal conductance value, Gmax. Activation curves were fitted by one Boltzmann distribution: G/Gmax=1/{1+exp[(V50−V)/s]} where V50 is the voltage at which the current is half-activated and s is the slope factor. All data were expressed as mean±SEM. Statistically significant differences were assessed by Student's t-test. Analysis of sEPSCs and sIPSCs was done using the Clampfit program (pClamp 9.2, Molecular Devices) and included evaluation of the individual events as well as the average event amplitude and the integral of the event (total charge transfer).
In these studies, the impact of the compounds on M-channel activity was measured by the heterologous coexpression of Kv7.2 and Kv7.3 subunits in CHO cells.

COX = assay: Anti-COX activity in cell culture, CT26 and D122 cell lines (results in words); assay type: cell-based, mouse; conditions: COX-dependent synthesis of PGE2
Procedure: Mouse colon adenocarcinoma CT26 and mouse lewis lung carcinoma D122 cells were grown in DMEM (D122) or RPMI (CT26) supplemented with 10% fetal calf serum, 4% glutamine, 1% penicillin-streptomycin-nystatin and 3% non essential amino acids (D122) and were kept in a humidified 37° C. incubator with 5% CO2. For the COX activity assays, cells were grown onto 24 multi-well plates.
Before the assay, cells were washed with serum-free medium; then the tested compounds were added to the medium and incubated for 30 minutes at 37° C. after which 30 μM arachidonic acid were added and incubated for additional 20 minutes. At the end of the incubation period, 10 μM Indomethacin were added to stop the reaction and medium was transferred to another 24 multi-well plate for measuring PGE2 production by radioimmunoassay (DuPont-NEN; Boston Mass.) according to manufacturer protocol. Protein determination was assayed on scraped cells using the Bradford method (1976) [Bradford M. M. 1976. Anal. Biochem. 72:248-254], with BSA as a standard and was used to normalize the amount of PGE2 production.
The anti-COX activity of NH25, NH29 and NH30 was examined in Mouse colon adenocarcinoma CT26 and mouse lewis lung carcinoma D122 cell lines. Cells were incubated with each of the tested compounds and the level of the COX-dependent synthesis of PGE2 was quantified using radioimmunoassay techniques.

[1] = tested on: maximal electroshock seizure model (MES) in ICR mice; assay: Maximal electroshock seizure test (MES); assay type: in vivo; conditions: 30 minutes before electroshock, data not shown
Procedure: The anti-convulsant effect was measured by the maximal electroshock seizure model (MES) in ICR mice as previously described. The procedures followed for experimentation and maintenance of the animals were approved by the animal research ethics committee of Tel Aviv University and in accordance with the Guide for the Care and Use of Laboratory Animals (1996, National Academy of Sciences, Washington D.C.). Briefly, maximal electroshock was induced in adult mice by means of two transcorneal electrodes delivering an alternative current of 50 mA at 60 Hz for 0.2 sec using rodent shocker (Hugo Sachs Electronik, type 221). […] The compounds, dissolved in 0.9% saline, were administered intraperitoneally 30 minutes before the electroshock was performed. Animals failing to show tonic hind limb extension were scored as protected and were expressed in percentage.

[2] = compounds whose Activity is Blocker
[3] = opener potency, concentration-dependent left-shift in half-activation potential ΔV50, sigmoidal fit

Row | Compound | Activity (Kv7.2/3 channels) | further results
1 | Zinc pyrithione [reference compound] | – | activation of S4 mutant R207W (KCNQ2 mutant R207W): activate very potently
2 | Cc1cccc(Nc2ccccc2C(=O)O)c1C [mefenamate, reference compound] | potent M-channel openers | –
3 | CC(C)COC(=O)c1ccccc1Nc1cccc(C(F)(F)F)c1 [NH11] | totally inactive | –
4 | O=C(Cc1ccccc1Nc1c(Cl)cccc1Cl)OCC1CO1 (stereo not shown) [NH21] | potent M-channel blockers; also recorded: Blocker | pEC50 (Kv7.2/3 channels; [2]): 4.00
5 | CC(C(=O)O)c1cccc(Oc2ccccc2)c1 (stereo not shown) [fenoprofen, reference compound] | do not activate Kv7.2/3 channels | –
6 | COCCOCCOCCOCCOC(=O)Cc1ccccc1Nc1c(Cl)cccc1Cl [NH8] | totally inactive | –
7 | O=C(O)Cc1ccccc1Nc1c(Cl)cccc1Cl [Diclofenac, reference compound] | Opener | pEC50 (Kv7.2/3 channels; [3]): 5.59
8 | O=C(Cc1ccccc1Nc1c(Cl)cccc1Cl)OCCOCCO [NH6] | Opener | ΔV50 (mV) (Kv7.2/3 channels): −18.7 mV; pEC50 (Kv7.2/3 channels; [3]): 4.74
9 | COc1ccc2cc([C@H](C)C(=O)O)ccc2c1 [naproxen, reference compound] | do not activate Kv7.2/3 channels | –
10 | O=C(NCCOCCO)c1ccccc1Nc1cccc(C(F)(F)F)c1 [NH16] | Opener | ΔV50 (mV) (Kv7.2/3 channels): −5.5 mV; pEC50 (Kv7.2/3 channels; [3]): 5.05
11 | Cc1c(Cl)cccc1Nc1ccccc1C(=O)OCC(C)C [NH10] | totally inactive | –
12 | O=C(Cc1cc([N+](=O)[O-])ccc1Nc1c(Cl)cc([N+](=O)[O-])cc1Cl)NCCO [NH28] | Opener | –
13 | O=C(Cc1cc([N+](=O)[O-])ccc1Nc1c(Cl)cccc1Cl)NCCO [NH30] | Opener | anti-COX activity (COX): did not exhibit anti-COX activity; ΔV50 (mV) (Kv7.2/3 channels): −12.2 mV; pEC50 (Kv7.2/3 channels; [3]): 4.77
14 | O=C(O)c1ccccc1Nc1cccc(C(F)(F)F)c1 [flufenamate, reference compound] | potent M-channel openers | –
15 | CC(C(=O)O)c1ccc(-c2ccccc2)c(F)c1 (stereo not shown) [flurbiprofen, reference compound] | do not activate Kv7.2/3 channels | –
16 | CC(C)COC(=O)Cc1ccccc1Nc1c(Cl)cccc1Cl [NH9] | potent M-channel blockers; also recorded: Blocker | pEC50 (Kv7.2/3 channels; [2]): 4.30
17 | Cc1c(Cl)cccc1Nc1ccccc1C(=O)NCCOCCO [NH18] | Opener | ΔV50 (mV) (Kv7.2/3 channels): −3.7 mV; pEC50 (Kv7.2/3 channels; [3]): 5.22
18 | O=C(Cc1ccccc1Nc1c(Cl)cccc1Cl)NCCOCCO [NH14] | Opener | ΔV50 (mV) (Kv7.2/3 channels): −12.6 mV
19 | O=C(Cc1ccccc1Nc1c(Cl)cccc1Cl)OCCO [NH7] | Opener | ΔV50 (mV) (Kv7.2/3 channels): −4.1 mV
20 | O=C(Cc1ccccc1Nc1c(Cl)cccc1Cl)NCCO [NH27] | Opener | –
21 | Cc1c(Cl)cccc1Nc1ccccc1C(=O)O [tolfenamate, reference compound] | potent M-channel openers | –
22 | COCCOCCOC(=O)Cc1ccccc1Nc1c(Cl)cccc1Cl [NH13] | totally inactive | –
23 | CN(CCO)C(=O)Cc1ccccc1Nc1c(Cl)cccc1Cl [NH5] | Opener | –
24 | CCCC(CCC)C(=O)[O-].[Na+] [sodium valproate] | – | protection in MES ([1]; 500 mg/kg intraperitoneal): fully prevented hind limb extension
25 | O=C(O)Cc1cc([N+](=O)[O-])ccc1Nc1c(Cl)cccc1Cl [NH24] | Opener | –
26 | O=C1NC(=O)C(c2ccccc2)(c2ccccc2)N1 [phenyloin] | – | protection in MES ([1]; 20 mg/kg intraperitoneal): fully prevented hind limb extension
27 | Cc1cccc(Nc2ccccc2C(=O)NCCOCCO)c1C [NH15] | Opener | ΔV50 (mV) (Kv7.2/3 channels): −8.4 mV; pEC50 (Kv7.2/3 channels; [3]): 5.52
28 | Cc1ccc(Cl)c(Nc2ccccc2C(=O)O)c1Cl [Meclofenamic, Meclofenamic acid, reference compound] | Opener | ΔV50 (mV) (Kv7.2/3 channels): −22.7 mV; pEC50 (Kv7.2/3 channels; [3]): 4.60
